Measured values taken from patent US6207656A, “Vitamin D analogues and their neuronal effects” (Cephalon, Inc., priority 1998, dated 2001).

Experiments:
[1] = cited from earlier work
[2] = Calcemic activity in rats, serum calcium after 7 days oral gavage; type: in vivo, LEW/MOL female rats; details: for Calcium in Serum: 0.5 μg/kg/day p.o., ± S.D.
Description: For determining calcemic activity, LEW/MOL female rats (130-170 g) were administered test compounds daily for 7 days by oral gavage. Control rats received the vehicle. Each group consisted of 3 rats. Blood was collected by cardiac puncture on day 7.

For `C=C1/C(=C\C=C2/CCC[C@]3(C)[C@@H]([C@H](C)CCCC(C)(C)O)CC[C@@H]23)C[C@@H](O)C[C@@H]1O` [1α,25(OH)2 D3, 1,25-dihydroxy vitamin D3, reference compound], the “serum calcium levels at doses that induce NGF” value ([1]; background) is given as “increase serum calcium levels at doses that induce NGF”, the “calcemic effect at efficacious doses” value ([1]; based upon previous data) is given as “calcemic” and the “Calcium in Serum” value ([2]; Table 2A (vehicle 2.46 ± 0.06)) is given as 2.71 ± 0.08 mmol/L. The “Calcium in Serum” value ([2]; Table 2B (vehicle 2.57 ± 0.06)) was 2.66 ± 0.10 mmol/L, the “Calcium in Serum” value ([2]; Table 2C (vehicle 2.68 ± 0.03)) was 2.77 ± 0.03 mmol/L and the “Calcium in Serum” value ([2]; Table 2D (vehicle 2.51 ± 0.09)) was 2.71 ± 0.03 mmol/L. The “Calcium in Serum” value ([2]; Table 2E (vehicle 2.51 ± 0.09)) was 2.71 ± 0.03 mmol/L and the “Calcemic Activity (%)” value ([2]; potency relative to 1α,25(OH)2 D3, rats, p.o. 7 days) was 100%.
